Measured values from US20090220562A1, “Osteogenic and anti-adipogenic oxysterols” (priority 2005, published 2009).

Legend:
Assay type in all cases: cell-based, mouse
[1] = test system: M2-10B4 marrow stromal cells; test: Alkaline phosphatase (ALP) activity assay on whole cell extracts of M2-10B4 marrow stromal cells; conditions: for induction of alkaline phosphatase activity: 10 μM oxysterol, 3 days, osteogenic medium
Protocol: (§1) Cells: M2-10B4 mouse marrow stromal cell line obtained from American Type Culture Collection (ATCC, Rockville, Md., U.S.A.) was derived from bone marrow stromal cells of a (C57BL/6J x C3H/HeJ) Fl mouse, and support human and murine myelopoiesis in long-term cultures (as per ATCC) and have the ability to differentiate into osteoblastic and adipocytic cells. Unless specified, these cells were cultured in RPMI 1640 containing 10% heat-inactivated FBS, and supplemented with 1 mM sodium pyruvate, 100 U/ml penicillin, and 100 U/ml streptomycin (all from Irvine Scientific).
Cells were always treated at 90% confluence. […]
Next, a combination of 22R and 20S oxysterols (RS, 2.5 μM each) were added in the presence or absence of SC as indicated. After 3 days, ALP activity was measured as described earlier. […] (B) M2 cells were treated as described in (A) and after 10 days matrix mineralization in cultures was quantified by a ^45Ca incorporation assay as described earlier. […] (C) M2 cells were pretreated with 20 μM SC for 4 hours, followed by the addition of RS in the presence or absence of SC as described above. After 8 days, total RNA was isolated and analyzed for osteocalcin (Osc) and […] expression by Northern blotting as previously described. Data from densitometric analysis of the Northern blot is shown in (D) as the average of duplicate samples, normalized to 18S rRNA. (E) M2 cells at confluence were pretreated for 2 hours with control vehicle (C), or PLA2 inhibitors ACA (25 μM) and AACOCF3 (AAC, 20 μM), in osteogenic medium. Next, a combination of 22R and 20S oxysterols (RS, 2.5 μM) was added in the presence or absence of the inhibitors as indicated. After 3 days, ALP activity was measured as previously described. […] (F) M2 cells were treated as described in (E). After 10 days, matrix mineralization in cultures was quantified using a ^45Ca incorporation assay as previously described. […]

[2] = test system: M2-10B4 marrow stromal cells; test: Matrix mineralization (45Ca incorporation assay, von Kossa staining) in M2-10B4 marrow stromal cells; conditions: for induction of mineralization by individual oxysterols: 0.5 to less than 10 μM, as many as 14 days (data not shown)
Protocol: as §1
Von Kossa and oil red O staining—Matrix mineralization in cell monolayers was detected by silver nitrate staining as previously described. Oil red O staining for detection of adipocytes was performed as previously described.
^45Ca incorporation assay—Matrix mineralization in cell monolayers was quantified using the ^45Ca incorporation assay as previously described.
After 14 days, mineralization was identified by a von Kossa staining, which appears black. FIG. 3C is a depiction of von Kossa staining of M2 cells exposed to various conditions.
After 14 days, matrix mineralization in cultures was quantified using a ^45Ca incorporation assay.
Next, a combination of 22R and 20S oxysterols (RS, 2.5 μM each) were added in the presence or absence of SC as indicated. After 3 days, ALP activity was measured as described earlier. […] (B) M2 cells were treated as described in (A) and after 10 days matrix mineralization in cultures was quantified by a ^45Ca incorporation assay as described earlier. […] (C) M2 cells were pretreated with 20 μM SC for 4 hours, followed by the addition of RS in the presence or absence of SC as described above. After 8 days, total RNA was isolated and analyzed for osteocalcin (Osc) and […] expression by Northern blotting as previously described. Data from densitometric analysis of the Northern blot is shown in (D) as the average of duplicate samples, normalized to 18S rRNA. (E) M2 cells at confluence were pretreated for 2 hours with control vehicle (C), or PLA2 inhibitors ACA (25 μM) and AACOCF3 (AAC, 20 μM), in osteogenic medium. Next, a combination of 22R and 20S oxysterols (RS, 2.5 μM) was added in the presence or absence of the inhibitors as indicated. After 3 days, ALP activity was measured as previously described. […] (F) M2 cells were treated as described in (E). After 10 days, matrix mineralization in cultures was quantified using a ^45Ca incorporation assay as previously described. Results from a representative of three experiments are shown, reported as the mean of quadruplicate determinations ±SD, normalized to protein concentration (p<0.01 for RS vs. RS+ACA and RS+AAC).
(A) M2 cells at confluence were pretreated for four hours with RPMI containing 1% FBS, followed by treatment with control vehicle or 5 μM 20S oxysterol for 1, 4, or 8 hours. Next total cell extracts were prepared and analyzed for levels of native or phosphorylated ERK (pERK) using specific antibodies as previously described. Data from a representative of four experiments are shown, each treatment shown in duplicate samples. (B) M2 cells at confluence were pretreated for 2 hours with control vehicle (C) or 20 μM PD98059 (PD) in osteogenic medium as previously described. Next, a combination of 22R and 20S oxysterols (RS, 5 μM each) were added to appropriate wells as indicated. After 10 days of incubation, matrix mineralization was quantified by the ^45Ca incorporation assay as previously described. […] (C) M2 cells at confluence were pretreated for 2 hours with 20 µM PD98059 (PD) in RPMI containing 5% FBS. Next, the cells were treated with control vehicle (C), 10 μM troglitazone (Tro), or 10 μM of 20S or 22S oxysterols, alone or in combination as indicated. After 10 days, adipocytes were visualized by oil Red O staining and quantified by light microscopy as previously described. […]

marrow stromal cells = test: Osteogenic differentiation of marrow stromal cells (marker not specified: ALP activity, osteocalcin mRNA, mineral formation); conditions: pretreatment and co-treatment; 20S 5-15 μM
Protocol: The purpose of the study was to identify other osteogenic and anti-adipogenic oxysterols based on the chemical structure of previously identified oxysterols. The ability of such candidate oxysterol molecules to induce the formation of osteoblastic cells in cultures of marrow stromal cells (which are progenitors of osteoblastic cells that make bone) were tested. In order to assess osteogenic differentiation of cells, one or more markers of osteogenic differentiation were measured in untreated cells and cells treated with the test oxysterols. These markers included: alkaline phosphatase activity, osteocalcin mRNA expression and mineral formation in cultures of marrow stromal cells. Activation of either one or more than one marker by a single or combination oxysterols is indicative of their osteogenic property.

Row | Compound | induction of alkaline phosphatase activity [1] | alkaline phosphatase (ALP) activity ([1]; doses of 5-15 μM) | induction of mineralization by individual oxysterols [2] | mineralization ([2]; doses of 5-15 μM) | enhancement of 20S-hydroxycholesterol's induction of ALP activity, Runx2 DNA binding and protein expression, osteocalcin mRNA expression and mineralization (marrow stromal cells)
1 | CC(C)CCC[C@](C)(O)[C@H]1CC[C@H]2[C@@H]3CC=C4C[C@@H](O)CC[C@]4(C)[C@H]3CC[C@@]21C [20S-hydroxycholesterol] | induced | induction | unable to induce | induction | 
2 | CC(C)CC[C@@H](O)[C@@H](C)[C@H]1CC[C@H]2[C@@H]3CC=C4C[C@@H](O)CC[C@]4(C)[C@H]3CC[C@]12C [22R-hydroxycholesterol] | induced |  | unable to induce |  | greatly enhanced
3 | CC(C)CC[C@H](O)[C@@H](C)[C@H]1CC[C@H]2[C@@H]3CC=C4C[C@@H](O)CC[C@]4(C)[C@H]3CC[C@]12C [22S-hydroxycholesterol] | induced |  | unable to induce |  | greatly enhanced
